In patent US8569349B2, “Therapeutic compounds” (Allergan, Inc., priority 2008, dated 2013):

System: lashes and adjacent hairs of the eyelids
Assay: Observation of lashes and adjacent hairs in glaucoma patients taking bimatoprost in only one eye
Type: in vivo
Source text: In the course of treating patients having glaucoma, treatment may only be appropriate in one eye. […] The lash appearance on the lids of the treated eyes would have appeared quite attractive if it represented a bilateral phenomenon. As a result of its asymmetric nature, the long lashes on one side could be construed as disturbing from a cosmetic standpoint. A systemic examination was preformed as a result of the asymmetric phenomenon. It soon became apparent that this altered appearance was not an isolated finding. […] Definite differences could be identified to varying degrees in the lashes and adjacent hairs of all patients who were taking the drug on a unilateral basis for longer than 6 months.
The changes in the lashes were apparent on gross inspection in several patients once attention was focused on the issue. In those with light colored hair and lashes, the differences were only seen easily with the aid of the high magnification and lighting capabilities of the slit lamp biomicroscope. In the course of glaucoma follow-up examination, attention is generally immediately focused on the eye itself. As a result of the high power magnification needed only one eye is seen at a time and the eye is seen at a high enough power that the lashes are not in focus. […]

## CCNC(=O)CCC/C=C\C[C@@H]1[C@@H](/C=C/[C@@H](O)CCc2ccccc2)[C@H](O)C[C@@H]1O [bimatoprost]
Glaucoma patient treated in one eye
  lashes in the treated eye compared with the non-treated eye: longer, thicker, and fuller
Multiple parameters of hair appearance, many subjects
  hair growth in treated versus control areas: stimulated
